Laboratory results taken from patent US20240254118A1, “PRMT5 INHIBITORS AND USES THEREOF” (Gilead Sciences, Inc., priority 2022, published 2024).

Columns and labels:
[1] = system: SDMA signal (PRMT5 inhibition) in HCT116 MTAP-deleted cells; assay: Symmetric di-methyl arginine image-based high content screen assay (SDMA assay), HCT116 MTAP-deleted; type: cell-based; settings: SDMA assay; for EC50: Homo sapiens, HCT-116, 72 h, 3 days of treatment, cell line not given, taken as HCT116 MTAP-deleted, read-out: EC50 (SDMA assay)
In short: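 HCT116 MTAP-deleted cells treated with compound until Day 3, then formalin-fixed, permeabilized and immunostained for SDMA, with DAPI nuclear counterstain. Imaged by high-content microscopy; SDMA read-out is mean Alexa 488 intensity per DAPI-defined cell, reflecting PRMT5 inhibition.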

[2] = system: HCT116 MTAP-deleted cells; assay: Cell viability assay (CellTiter-Glo, 7 days), HCT116 MTAP-deleted; settings: Homo sapiens, HCT-116, 168 h
[3] = taken as HCT116 WT versus MTAP-deleted
[4] = taken as HCT116 WT vs MTAP-deleted

Row | Structure (SMILES) | EC50 [1] | EC50 selectivity (SDMA assay) [1, 3] | CC50 [2] | EC50 selectivity (SDMA assay) [1, 4]
1 | Cn1ncc2c(N)nc3cc(Cl)c(C(=O)N(Cc4ccc(C(F)(F)F)cn4)N4CCCOC4=O)cc3c21 [Example 143, 4-amino-7-chloro-1-methyl-N-(2-oxo-1,3-oxazinan-3-yl)-N-[[5-(trifluoromethyl)-2-pyridyl]methyl]pyrazolo[4,3-c]quinoline-8-carboxamide] | 1 to 5 nM | 67 | < 100 nM | 
2 | CC(=O)N(C)N(Cc1ccc(C(F)(F)F)nc1C)C(=O)c1ccc2nc(N)c3cnn(C)c3c2c1 [Example 416, N′-acetyl-4-amino-N′,1-dimethyl-N-((2-methyl-6-(trifluoromethyl)pyridin-3-yl)methyl)-1H-pyrazolo[4,3-c]quinoline-8-carbohydrazide] | 1 to 5 nM |  | < 100 nM | 133
3 | CC(=O)N(C)N(Cc1ccc(C(F)(F)F)cn1)C(=O)c1ccc2nc(N)c3c(c2c1)CO[C@@H]3C [Example 71, (3R)—N′-acetyl-4-amino-N′,3-dimethyl-N-[[5-(trifluoromethyl)-2-pyridyl]methyl]-1,3-dihydrofuro[3,4-c]quinoline-8-carbohydrazide] | 1 to 5 nM | 59 | < 100 nM | 
4 | [2H]C([2H])([2H])N(C(=O)C1CC1)N(Cc1ccc(C(F)(F)F)cn1)C(=O)c1ccc2nc(N)c3cnn(C)c3c2c1 [Example 325, 4-amino-N′-(cyclopropanecarbonyl)-1-methyl-N′-(methyl-d3)-N-((5-(trifluoromethyl)pyridin-2-yl)methyl)-1H-pyrazolo[4,3-c]quinoline-8-carbohydrazide] | < 1 nM | 103 | < 100 nM | 
5 | Cn1ncc2c(N)nc3cc(F)c(C(=O)N(Cc4ccc(C(F)(F)F)cn4)NC(=O)C4(F)CC4)cc3c21 [Example 294, 4-amino-7-fluoro-N′-(1-fluorocyclopropane-1-carbonyl)-1-methyl-N-((5-(trifluoromethyl)pyridin-2-yl)methyl)-1H-pyrazolo[4,3-c]quinoline-8-carbohydrazide] | < 1 nM | 97 | < 100 nM | 
6 | CC(=O)N(C)N(Cc1nc2cc(F)ccc2s1)C(=O)c1ccc2nc(N)c3cnn(C)c3c2c1 [Example 92, N′-Acetyl-4-amino-N-[(5-fluoro-1,3-benzothiazol-2-yl)methyl]-N′,1-dimethyl-pyrazolo[4,3-c]quinoline-8-carbohydrazide] | < 1 nM | 257 | < 100 nM | 
7 | Cn1ncc2c(N)nc3cc(F)c(C(=O)N(Cc4ccc(C(F)(F)F)cn4)NC(=O)OC4CCC4)cc3c21 [Example 331, cyclobutyl 2-(4-amino-7-fluoro-1-methyl-1H-pyrazolo[4,3-c]quinoline-8-carbonyl)-2-((5-(trifluoromethyl)pyridin-2-yl)methyl)hydrazine-1-carboxylate] | < 1 nM | 37 | < 100 nM | 
8 | Cn1ncc2c(N)nc3ccc(C(=O)N(Cc4nc5ccc(F)cc5s4)N4CCCC4=O)cc3c21 [Example 85, 4-Amino-N-[(6-fluoro-1,3-benzothiazol-2-yl)methyl]-1-methyl-N-(2-oxopyrrolidin-1-yl)pyrazolo[4,3-c]quinoline-8-carboxamide] | < 1 nM | 48 | < 100 nM | 
9 | Cn1ncc2c(N)nc3cc(F)c(C(=O)N(Cc4ccc(C(F)(F)F)cn4)N4CCCOC4=O)cc3c21 [Example 144, 4-amino-7-fluoro-1-methyl-N-(2-oxo-1,3-oxazinan-3-yl)-N-[[5-(trifluoromethyl)-2-pyridyl]methyl]pyrazolo[4,3-c]quinoline-8-carboxamide] | 1 to 5 nM | 43 | < 100 nM | 
10 | Cn1ncc2c(N)nc3ccc(C(=O)N(Cc4ccc(C(F)(F)F)nc4)N4CCCC4=O)cc3c21 [Example 392, 4-amino-1-methyl-N-(2-oxopyrrolidin-1-yl)-N-[[6-(trifluoromethyl)-3-pyridyl]methyl]pyrazolo[4,3-c]quinoline-8-carboxamide] | 1 to 5 nM | 285 | < 100 nM | 
11 | COc1cc(C(F)(F)F)ccc1CN(C(=O)c1ccc2nc(N)c3cnn(C)c3c2c1)N(C)C(C)=O [Example 19, N′-acetyl-4-amino-N-[[2-methoxy-4-(trifluoromethyl)phenyl]methyl]-N′,1-dimethyl-pyrazolo[4,3-c]quinoline-8-carbohydrazide] | < 1 nM | 93 | < 100 nM | 
12 | CC(=O)N(C)N(Cc1ccc(C(F)(F)F)cn1)C(=O)c1ccc2nc(N)c3cnn(C)c3c2c1 [Example 33, N′-acetyl-4-amino-N′, 1-dimethyl-N-[[5-(trifluoromethyl)-2-pyridyl]methyl]pyrazolo[4,3-c]quinoline-8-carbohydrazide] | < 1 nM | 73 | < 100 nM | 
13 | CN(C(=O)N1CC(F)(F)C1)N(Cc1ccc(C(F)(F)F)cn1)C(=O)c1ccc2nc(N)c3cnn(C)c3c2c1 [Example 157, 4-amino-N′-(3,3-difluoroazetidine-1-carbonyl)-N′,1-dimethyl-N-((5-(trifluoromethyl)pyridin-2-yl)methyl)-1H-pyrazolo[4,3-c]quinoline-8-carbohydrazide] | < 1 nM | 54 | < 100 nM | 
14 | COCCN(C)N(Cc1ccc(C(F)(F)F)cn1)C(=O)c1cc2c(cc1F)nc(N)c1cnn(C)c12 [Example 180, 4-amino-7-fluoro-N′-(2-methoxyethyl)-N′,1-dimethyl-N-((5-(trifluoromethyl)pyridin-2-yl)methyl)-1H-pyrazolo[4,3-c]quinoline-8-carbohydrazide] | < 1 nM | 50 | < 100 nM | 
15 | [2H]C([2H])([2H])N(C(=O)C1CC1)N(Cc1ccc(C(F)(F)F)cn1)C(=O)c1ccc2nc(N)c3cnn(C([2H])([2H])[2H])c3c2c1 [Example 326, 4-amino-N′-(cyclopropanecarbonyl)-N′,1-bis(methyl-d3)-N-((5-(trifluoromethyl)pyridin-2-yl)methyl)-1H-pyrazolo[4,3-c]quinoline-8-carbohydrazide] | < 1 nM | 114 | < 100 nM | 
16 | CN(C(=O)C1CC(F)(F)C1)N(Cc1ccc(C(F)(F)F)cn1)C(=O)c1ccc2nc(N)c3cnn(C)c3c2c1 [Example 99, 4-amino-N′-(3,3-difluorocyclobutane-1-carbonyl)-N′,1-dimethyl-N-((5-(trifluoromethyl)pyridin-2-yl)methyl)-1H-pyrazolo[4,3-c]quinoline-8-carbohydrazide] | 1 to 5 nM | 269 | < 100 nM | 
17 | COCCN(C)N(Cc1ccc(C(F)(F)F)cc1F)C(=O)c1ccc2nc(N)c3cnn(C)c3c2c1 [Example 396, 4-amino-N-[[2-fluoro-4-(trifluoromethyl)phenyl]methyl]-N′-(2-methoxyethyl)-N′,1-dimethyl-pyrazolo[4,3-c]quinoline-8-carbohydrazide] | 1 to 5 nM |  | < 100 nM | 135
18 | CN(CC1CCC1)N(Cc1ccc(C(F)(F)F)cn1)C(=O)c1cc2c(cc1F)nc(N)c1cnn(C)c12 [Example 453, 4-amino-N′-(cyclobutylmethyl)-7-fluoro-N′,1-dimethyl-N-((5-(trifluoromethyl)pyridin-2-yl)methyl)-1H-pyrazolo[4,3-c]quinoline-8-carbohydrazide] | < 1 nM |  | < 100 nM | 15
19 | CN(C(=O)C1(C(F)(F)F)CC1)N(Cc1ccc(C(F)(F)F)cn1)C(=O)c1ccc2nc(N)c3cnn(C)c3c2c1 [Example 52, 4-amino-N′, 1-dimethyl-N′-[1-(trifluoromethyl)cyclopropanecarbonyl]-N-[[5-(trifluoromethyl)-2-pyridyl]methyl]pyrazolo[4,3-c]quinoline-8-carbohydrazide] | 1 to 5 nM | 174 | 100 to 1000 nM | 
20 | Cn1ncc2c(N)nc3ccc(C(=O)N(Cc4ccc(OC(F)F)cc4)N4CCCOC4=O)cc3c21 [Example 5, 4-amino-N-(4-(difluoromethoxy)benzyl)-1-methyl-N-(2-oxo-1,3-oxazinan-3-yl)-1H-pyrazolo[4,3-c]quinoline-8-carboxamide] | < 1 nM | 266 | < 100 nM | 
21 | Cn1ncc2c(N)nc3cc(F)c(C(=O)N(Cc4ccc(C(F)(F)F)cn4)N4CCOCC4)cc3c21 [Example 142, 4-amino-7-fluoro-1-methyl-N-morpholino-N-((5-(trifluoromethyl)pyridin-2-yl)methyl)-1H-pyrazolo[4,3-c]quinoline-8-carboxamide] | < 1 nM | 32 | < 100 nM | 
22 | Cn1ncc2c(N)nc3ccc(C(=O)N(Cc4nc5ccccc5s4)N4CCC(F)(F)C4=O)cc3c21 [Example 169, 4-amino-N-(1,3-benzothiazol-2-ylmethyl)-N-(3,3-difluoro-2-oxo-pyrrolidin-1-yl)-1-methyl-pyrazolo[4,3-c]quinoline-8-carboxamide] | 1 to 5 nM | 14 | < 100 nM | 
23 | CN(C(=O)C(F)F)N(Cc1ccc(C(F)(F)F)cn1)C(=O)c1ccc2nc(N)c3cnn(C)c3c2c1 [Example 195, 4-amino-N′-(2,2-difluoroacetyl)-N′,1-dimethyl-N-[[5-(trifluoromethyl)-2-pyridyl]methyl]pyrazolo[4,3-c]quinoline-8-carbohydrazide] | < 1 nM | 146 | < 100 nM | 
